In patent publication US20100286186A1, “NOVEL DICARBOXYLIC ACID LINKED AMINO ACID AND PEPTIDE PRODRUGS OF OPIOIDS AND USES THEREOF” (Shire LLC, priority 2009, published 2010):
“And” between values parts separate entries of the source, which are not always exact repeats. Identical values can stand only once. Marks after values point to notes of the source that are not given here.

Columns and labels:
[1] = Comparative oral bioavailability of oxycodone from various dicarboxylate bridged amino acid prodrugs in dogs (nine-way crossover); format: in vivo, dog; conditions: 1 mg/kg oxycodone free base, mean (±sd)
[2] = Comparative pharmacokinetics of oxycodone in the cynomolgus monkey after oral administration; conditions: male cynomolgus monkeys, oral, 1 mg oxycodone free base equivalents/kg
[3] = Comparative pharmacokinetics of oxycodone after oral administration to female Sprague Dawley rats; conditions: oral, 10 mg oxycodone free base equivalents/kg
[4] = Bioavailability of oxycodone, codeine and dihydrocodeine from their succinyl valine ester prodrugs in the dog (oral gavage, two-way crossover); conditions: dogs, oral gavage; for T>50%Cmax of oxycodone: 1 mg free base equivalents oxycodone/kg
Protocol: The characteristics of the test animals are set out in Table 10, below.
Blood samples were taken at various times after administration and submitted to analysis for the parent drug and pro-drug using a validated LC-MS-MS assay. Pharmacokinetic parameters derived from the plasma analytical data were determined using Win Nonlin.

gut motility in the rat = test: Charcoal propulsion test of GI motility in the rat; format: in vivo; conditions: oral; for delay of the passage of the charcoal meal (gut motility): 30 mg/kg or equimolar dose
Protocol: Test treatments were administered to groups of up to 10 rats fasted overnight prior to the test.
Test treatments were administered orally 60 minutes prior to a 2.0 mL oral dose of a 10% suspension of charcoal in 5% gum arabic. Thirty minutes after dosing with charcoal, the rats were sacrificed and the entire gastro-intestinal tract quickly and carefully removed. The distance the charcoal meal had traveled from the pyloric sphincter toward the caecum was measured and expressed as a percentage of both the total gut length and the length of the small intestine.

[5] = tested on: guinea pig small intestine myenteric plexus longitudinal muscle; test: Ex vivo smooth muscle contractility, electrical field stimulation response of isolated guinea pig small intestine; conditions: Cavia porcellus, isolated guinea pig ileum, concentration as free base of opioid; read-out: EC50, opioid effect on electrical field stimulation response
[6] = cited from earlier work
[7] = rat model; cited from earlier work

Compound: COc1ccc2c3c1O[C@H]1C(=O)CC[C@@]4(O)[C@@H](C2)N(C)CC[C@]314.Cl [Oxycodone HCl, oxycodone hydrochloride, reference compound]
- T50% Cmax of oxycodone [1]: 2.0 (±0.6) h.
- T>50%Cmax of oxycodone ([2]; individual monkeys 1-5, hydrochloride): 1.84 h and 1.18 h and 1.89 h and 2.37 h and 1.79 h
- T>50%Cmax of oxycodone ([2]; mean (n=5)): 1.81 h
- T>50%Cmax of oxycodone ([3]; individual rats, hydrochloride): 1.75 h (2×) and 0.75 h (2×) and 0.5 h
- T>50%Cmax of oxycodone ([3]; median): 0.75^a h
- T>50%Cmax of oxycodone ([4]; individual dogs 1-5): 0.5 h
- T>50%Cmax of oxycodone ([4]; median (n=5)): 0.5^a h

Compound: COc1ccc2c3c1O[C@H]1C(=O)CC[C@@]4(O)[C@@H](C2)N(C)CC[C@]314 [Oxycodone, oxycodone, reference compound]
- T>50%Cmax of oxycodone ([2]; mean (n=5)): 1.8 h
- T>50%Cmax of oxycodone ([3]; median): 0.75 h
- % change from vehicle-treated animals, small intestine (gut motility in the rat; 10 mg/kg): −15.6%
- % change from vehicle-treated animals, total gut length (gut motility in the rat; 10 mg/kg): −16.0%
- % change from vehicle-treated animals, small intestine (gut motility in the rat; 30 mg/kg): −52.2%
- % change from vehicle-treated animals, total gut length (gut motility in the rat; 30 mg/kg): −52.2%
- delay of the passage of the charcoal meal (gut motility) (gut motility in the rat): 52%
- % change from vehicle-treated animals, small intestine (gut motility in the rat; 100 mg/kg): −75.5%
- % change from vehicle-treated animals, total gut length (gut motility in the rat; 100 mg/kg): −76.5%

Compound: COc1ccc2c3c1O[C@H]1[C@@H](OC(=O)CCC(=O)N[C@H](C(=O)O)C(C)C)CCC4[C@@H](C2)N(C)CC[C@@]341 (stereo partly drawn) [dihydrocodeine-[succinyl-(S)-valine]ester]
- EC50 [5]: 20 µM
- T>50%Cmax of dihydrocodeine ([4]; 1 mg free base equivalents dihydrocodeine/kg, median (n=5)): 2 h
- delay of the passage of the charcoal meal (gut motility) (gut motility in the rat): 8.5%

Compound: CCC(=O)Oc1ccc2c3c1O[C@H]1[C@@H](O)C=C[C@H]4[C@@H](C2)N(C)CC[C@@]341 [morphine-3-propionate]
- half-life of hydrolysis in human plasma [6]: less than 5 minutes

Compound: (Z)-3-[2-(propionyloxy)phenyl]-2-propanoic ester
- bioavailability over meptazinol itself [7]: significant increase in bioavailability
